Key:
[1] = biological target: T1, Diacylglycerol O-acyltransferase 1 (Homo sapiens, UniProt O75907); test: Inhibition of human DGAT1 in serum starved HEK293 cells assessed as inhibition of triglyceride synthesis incubated for 20 mins followed by 13C-addition of 13C-oleic acid pre-complexed with BSA for 120 mins by LC-MS-based mass spectrophotometric analysis; type: cell-based
T1 sequence (O75907 whole entry): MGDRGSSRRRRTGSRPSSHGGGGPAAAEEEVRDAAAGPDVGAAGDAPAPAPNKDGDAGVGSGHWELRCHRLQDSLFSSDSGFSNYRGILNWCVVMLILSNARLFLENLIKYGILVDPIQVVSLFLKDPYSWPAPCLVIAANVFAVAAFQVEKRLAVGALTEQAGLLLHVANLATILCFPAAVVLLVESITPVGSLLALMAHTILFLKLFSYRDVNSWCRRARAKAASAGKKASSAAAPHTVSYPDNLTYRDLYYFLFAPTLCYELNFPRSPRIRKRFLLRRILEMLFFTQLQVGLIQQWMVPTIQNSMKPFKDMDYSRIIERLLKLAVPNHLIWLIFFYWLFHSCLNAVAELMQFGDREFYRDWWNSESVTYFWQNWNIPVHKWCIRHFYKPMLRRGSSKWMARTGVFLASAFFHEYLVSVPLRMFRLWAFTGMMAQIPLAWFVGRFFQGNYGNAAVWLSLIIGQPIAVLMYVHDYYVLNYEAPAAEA

[2] = Metabolic stability in rat liver microsomes assessed as parent compound remaining at 1 uM and measured at 30 mins by LC-MS/MS analysis; type: ADME, Microsome; conditions: read-out: Stability
[3] = Metabolic stability in mouse liver microsomes assessed as parent compound remaining at 1 uM and measured at 30 mins by LC-MS/MS analysis; type: ADME, Microsome; conditions: read-out: Stability
[4] = Metabolic stability in human liver microsomes assessed as parent compound remaining at 1 uM and measured at 30 mins by LC-MS/MS analysis; type: ADME, Microsome; conditions: read-out: Stability
hERG (KCNH2) = hERG (KCNH2) (Homo sapiens, UniProt Q12809); test: Displacement of [3H]astemizole from human ERG expressed in HEK293 cell membrane at 30 uM for 2 hrs by Radiometric displacement assay; type: toxicity; conditions: HEK293 cell membranes that express hERG, probe [3H]astemizole
Chain of hERG (KCNH2) (Q12809 whole entry): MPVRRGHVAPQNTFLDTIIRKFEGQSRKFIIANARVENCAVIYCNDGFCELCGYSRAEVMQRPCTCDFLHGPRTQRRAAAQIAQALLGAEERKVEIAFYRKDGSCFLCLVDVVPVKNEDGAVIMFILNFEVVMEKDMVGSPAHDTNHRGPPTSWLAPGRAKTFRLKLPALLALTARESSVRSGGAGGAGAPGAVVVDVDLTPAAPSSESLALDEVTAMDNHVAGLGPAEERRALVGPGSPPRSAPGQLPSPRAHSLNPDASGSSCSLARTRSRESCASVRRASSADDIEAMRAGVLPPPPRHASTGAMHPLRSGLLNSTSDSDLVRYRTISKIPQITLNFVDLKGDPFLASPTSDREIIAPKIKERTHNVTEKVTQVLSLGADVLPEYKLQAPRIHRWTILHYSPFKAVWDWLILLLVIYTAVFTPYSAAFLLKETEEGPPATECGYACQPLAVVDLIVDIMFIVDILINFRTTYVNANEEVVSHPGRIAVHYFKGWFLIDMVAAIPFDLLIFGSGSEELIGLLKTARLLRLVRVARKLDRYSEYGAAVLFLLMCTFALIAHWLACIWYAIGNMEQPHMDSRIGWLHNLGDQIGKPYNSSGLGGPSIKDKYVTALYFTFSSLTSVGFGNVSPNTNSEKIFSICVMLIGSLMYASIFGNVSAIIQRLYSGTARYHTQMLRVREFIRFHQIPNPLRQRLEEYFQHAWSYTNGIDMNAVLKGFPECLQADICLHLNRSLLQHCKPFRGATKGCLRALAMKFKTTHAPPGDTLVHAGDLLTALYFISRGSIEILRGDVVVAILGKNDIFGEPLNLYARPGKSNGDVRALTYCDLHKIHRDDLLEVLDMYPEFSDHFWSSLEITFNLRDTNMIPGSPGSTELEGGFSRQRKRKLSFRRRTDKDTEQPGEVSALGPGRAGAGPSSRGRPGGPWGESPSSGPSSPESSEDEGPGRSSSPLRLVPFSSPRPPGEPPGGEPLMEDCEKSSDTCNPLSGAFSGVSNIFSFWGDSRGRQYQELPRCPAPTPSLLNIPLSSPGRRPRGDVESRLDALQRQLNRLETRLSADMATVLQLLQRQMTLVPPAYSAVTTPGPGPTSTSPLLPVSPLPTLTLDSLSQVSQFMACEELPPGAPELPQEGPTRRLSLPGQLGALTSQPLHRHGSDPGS

[5] = Plasma protein binding in rat; type: ADME, cell-free; conditions: read-out: PPB
[6] = Plasma protein binding in mouse; type: ADME, cell-free; conditions: read-out: PPB (converted)
[7] = Clearance in C57BL/6 mouse at 3 mg/kg, iv or 10 mg/kg, po and measured up to 24 hrs by LC-MS/MS analysis; type: ADME, organism-based; conditions: in vivo
[8] = Apparent permeability across apical to basolateral side in MDCK cells at 2.5 uM for 90 mins; type: ADME, cell-based, Canis lupus familiaris; conditions: dog
[9] = Volume of distribution at steady state in C57BL/6 mouse at 3 mg/kg, iv or 10 mg/kg, po and measured up to 24 hrs by LC-MS/MS analysis; type: ADME, organism-based; conditions: in vivo, read-out: Vdss
[10] = AUC in C57BL/6 mouse at 3 mg/kg, iv or 10 mg/kg, po and measured up to 24 hrs by LC-MS/MS analysis; type: ADME, organism-based; set-up: time < 24 hrs, dose 3 mg/kg, route iv; conditions: in vivo
[11] = Cmax in C57BL/6 mouse at 3 mg/kg, iv or 10 mg/kg, po and measured up to 24 hrs by LC-MS/MS analysis; type: ADME, organism-based; set-up: dose 3 mg/kg, time < 24 hrs, route iv; conditions: in vivo
[12] = Tmax in C57BL/6 mouse at 3 mg/kg, iv or 10 mg/kg, po and measured up to 24 hrs by LC-MS/MS analysis; type: ADME, organism-based; conditions: in vivo
[13] = Half life in C57BL/6 mouse at 3 mg/kg, iv or 10 mg/kg, po and measured up to 24 hrs by LC-MS/MS analysis; type: ADME, organism-based; conditions: in vivo
[14] = Oral bioavailability in C57BL/6 mouse 10 mg/kg or 3 mg/kg, iv and measured up to 24 hrs by LC-MS/MS analysis; type: ADME, organism-based; conditions: in vivo
[15] = Volume of distribution at steady state in Wistar rat at 3 mg/kg, iv or 10 mg/kg, po and measured up to 24 hrs by LC-MS/MS analysis; type: ADME, organism-based; conditions: in vivo, read-out: Vdss
[16] = Clearance in Wistar rat at 3 mg/kg, iv or 10 mg/kg, po and measured up to 24 hrs by LC-MS/MS analysis; type: ADME, organism-based; conditions: in vivo
[17] = AUC in Wistar rat at 3 mg/kg, iv or 10 mg/kg, po and measured up to 24 hrs by LC-MS/MS analysis; type: ADME, organism-based; set-up: dose 3 mg/kg, time < 24 hrs, route iv; conditions: in vivo
[18] = Cmax in Wistar rat at 3 mg/kg, iv or 10 mg/kg, po and measured up to 24 hrs by LC-MS/MS analysis; type: ADME, organism-based; set-up: dose 3 mg/kg, time < 24 hrs, route iv; conditions: in vivo
[19] = Tmax in Wistar rat at 3 mg/kg, iv or 10 mg/kg, po and measured up to 24 hrs by LC-MS/MS analysis; type: ADME, organism-based; conditions: in vivo
[20] = Half life in Wistar rat at 3 mg/kg, iv or 10 mg/kg, po and measured up to 24 hrs by LC-MS/MS analysis; type: ADME, organism-based; conditions: in vivo
[21] = Oral bioavailability in Wistar rat at 10 mg/kg or 3 mg/kg, iv and measured up to 24 hrs by LC-MS/MS analysis; type: ADME, organism-based; conditions: in vivo
[22] = Drug distribution in C57BL/6 mouse plasma 10 mg/kg, po and measured at 1 hrs post dose by LC-MS/MS analysis; type: ADME, organism-based
[23] = Drug distribution in C57BL/6 mouse plasma 10 mg/kg, po and measured at 2 hrs post dose by LC-MS/MS analysis; type: ADME, organism-based
[24] = Drug distribution in C57BL/6 mouse plasma 10 mg/kg, po and measured at 8 hrs post dose by LC-MS/MS analysis; type: ADME, organism-based
[25] = Drug distribution in C57BL/6 mouse adipose tissue 10 mg/kg, po and measured at 1 hrs post dose by LC-MS/MS analysis; type: ADME, organism-based; conditions: read-out: Ct
[26] = Drug distribution in C57BL/6 mouse adipose tissue 10 mg/kg, po and measured at 2 hrs post dose by LC-MS/MS analysis; type: ADME, organism-based; conditions: read-out: Ct
[27] = Drug distribution in C57BL/6 mouse adipose tissue 10 mg/kg, po and measured at 8 hrs post dose by LC-MS/MS analysis; type: ADME, organism-based; conditions: read-out: Ct
[28] = Drug distribution in C57BL/6 mouse liver 10 mg/kg, po and measured at 1 hrs post dose by LC-MS/MS analysis; type: ADME, organism-based; conditions: read-out: Ct
[29] = Drug distribution in C57BL/6 mouse liver 10 mg/kg, po and measured at 2 hrs post dose by LC-MS/MS analysis; type: ADME, organism-based; conditions: read-out: Ct
[30] = Drug distribution in C57BL/6 mouse liver 10 mg/kg, po and measured at 8 hrs post dose by LC-MS/MS analysis; type: ADME, organism-based; conditions: read-out: Ct
[31] = Drug distribution in C57BL/6 mouse skeletal muscle 10 mg/kg, po and measured at 1 hrs post dose by LC-MS/MS analysis; type: ADME, organism-based, Skeletal muscle tissue; conditions: read-out: Ct
[32] = Drug distribution in C57BL/6 mouse skeletal muscle 10 mg/kg, po and measured at 2 hrs post dose by LC-MS/MS analysis; type: ADME, organism-based, Skeletal muscle tissue; conditions: read-out: Ct
[33] = Drug distribution in C57BL/6 mouse skeletal muscle 10 mg/kg, po and measured at 8 hrs post dose by LC-MS/MS analysis; type: ADME, organism-based, Skeletal muscle tissue; conditions: read-out: Ct
[34] = Drug distribution in C57BL/6 mouse brain 10 mg/kg, po and measured at 1 hrs post dose by LC-MS/MS analysis; type: ADME, organism-based; conditions: read-out: Ct
[35] = Drug distribution in C57BL/6 mouse brain 10 mg/kg, po and measured at 2 hrs post dose by LC-MS/MS analysis; type: ADME, organism-based; conditions: read-out: Ct
[36] = biological target: 2-acylglycerol O-acyltransferase 2 (Homo sapiens) (UniProt Q3SYC2); test: Inhibition of recombinant human MGAT2 expressed in Sf9 cell membrane assessed as inhibition of triglyceride synthesis at 10 uM for 1 hr by LC-MS-based mass spectrophotometric analysis
Chain of 2-acylglycerol O-acyltransferase 2 (Homo sapiens) (Q3SYC2 whole entry, looked up): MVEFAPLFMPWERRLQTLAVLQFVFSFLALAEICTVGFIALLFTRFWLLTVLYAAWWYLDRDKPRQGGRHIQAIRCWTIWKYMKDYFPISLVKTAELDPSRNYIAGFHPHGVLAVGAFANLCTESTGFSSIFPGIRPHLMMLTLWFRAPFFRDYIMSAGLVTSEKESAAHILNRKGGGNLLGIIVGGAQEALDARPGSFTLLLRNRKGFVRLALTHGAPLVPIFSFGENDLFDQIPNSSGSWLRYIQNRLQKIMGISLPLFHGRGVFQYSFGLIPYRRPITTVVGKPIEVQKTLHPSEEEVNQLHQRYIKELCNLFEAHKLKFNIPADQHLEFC

[37] = Inhibition of human […] in HepG2 cells assessed as inhibition of triglyceride synthesis at 1 uM incubated for 1 hrs followed by 13C-addition of 13C-oleic acid pre-complexed with fatty acid free BSA for 6 hrs by LC/MS/MS analysis; conditions: time 7.0 hrs
[38] = Inhibition of human […] in HepG2 cells assessed as inhibition of triglyceride synthesis at 100 nM incubated for 1 hrs followed by 13C-addition of 13C-oleic acid pre-complexed with fatty acid free BSA for 6 hrs by LC/MS/MS analysis; conditions: time 7.0 hrs
[39] = Inhibition of human […] in HepG2 cells assessed as inhibition of triglyceride synthesis at 300 nM incubated for 1 hrs followed by 13C-addition of 13C-oleic acid pre-complexed with fatty acid free BSA for 6 hrs by LC/MS/MS analysis; conditions: time 7.0 hrs
CYP1A2 = biological target: T2, CYP1A2 (Homo sapiens, UniProt P05177); test: Inhibition of recombinant human CYP1A2 at 25 uM by fluorescence plate reader analysis; type: ADME
T2 sequence (P05177 whole entry): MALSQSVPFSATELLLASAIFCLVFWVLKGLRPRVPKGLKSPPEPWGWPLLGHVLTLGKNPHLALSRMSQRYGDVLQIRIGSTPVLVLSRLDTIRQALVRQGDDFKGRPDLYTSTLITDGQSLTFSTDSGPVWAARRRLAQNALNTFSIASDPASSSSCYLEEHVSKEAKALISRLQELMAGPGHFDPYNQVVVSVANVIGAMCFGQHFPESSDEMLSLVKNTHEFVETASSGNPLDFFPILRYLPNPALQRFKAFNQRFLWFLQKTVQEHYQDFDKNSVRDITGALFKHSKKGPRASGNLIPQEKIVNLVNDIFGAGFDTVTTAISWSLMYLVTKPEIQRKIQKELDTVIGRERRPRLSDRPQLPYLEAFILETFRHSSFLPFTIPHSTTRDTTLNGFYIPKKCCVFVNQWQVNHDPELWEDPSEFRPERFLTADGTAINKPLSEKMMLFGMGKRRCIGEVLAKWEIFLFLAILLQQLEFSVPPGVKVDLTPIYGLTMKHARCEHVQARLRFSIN

CYP3A4 = CYP3A4 (Homo sapiens, UniProt P08684); test: Inhibition of recombinant human CYP3A4 at 25 uM by fluorescence plate reader analysis; type: ADME
Chain of CYP3A4 (P08684 whole entry): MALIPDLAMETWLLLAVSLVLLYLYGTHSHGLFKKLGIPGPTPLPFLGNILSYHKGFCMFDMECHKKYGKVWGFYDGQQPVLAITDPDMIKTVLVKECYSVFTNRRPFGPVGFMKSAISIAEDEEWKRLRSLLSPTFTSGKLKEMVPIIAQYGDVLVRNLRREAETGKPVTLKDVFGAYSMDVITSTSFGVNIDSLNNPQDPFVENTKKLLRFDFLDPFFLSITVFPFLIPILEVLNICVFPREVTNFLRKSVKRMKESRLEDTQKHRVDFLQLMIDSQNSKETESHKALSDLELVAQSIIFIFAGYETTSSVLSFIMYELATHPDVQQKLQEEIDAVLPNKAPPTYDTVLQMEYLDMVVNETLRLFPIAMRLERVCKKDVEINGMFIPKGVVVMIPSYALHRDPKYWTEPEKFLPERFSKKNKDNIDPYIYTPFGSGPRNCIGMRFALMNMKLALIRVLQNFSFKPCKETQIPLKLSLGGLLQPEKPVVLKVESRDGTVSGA

[40] = Solubility of compound in PBS at pH 2 incubated for 4 hrs under shaking condition by UV absorbance based analysis; type: physicochemical
[41] = Solubility of compound in PBS at pH 4 incubated for 4 hrs under shaking condition by UV absorbance based analysis; type: physicochemical
[42] = Solubility of compound in PBS at pH 7.4 incubated for 4 hrs under shaking condition by UV absorbance based analysis; type: physicochemical
[43] = Solubility of compound in PBS at pH 9 incubated for 4 hrs under shaking condition by UV absorbance based analysis; type: physicochemical
CYP2D6 = CYP2D6 (Homo sapiens, UniProt P10635); test: Inhibition of recombinant human CYP2D6 at 25 uM by fluorescence plate reader analysis; type: ADME
Chain of CYP2D6 (P10635 whole entry): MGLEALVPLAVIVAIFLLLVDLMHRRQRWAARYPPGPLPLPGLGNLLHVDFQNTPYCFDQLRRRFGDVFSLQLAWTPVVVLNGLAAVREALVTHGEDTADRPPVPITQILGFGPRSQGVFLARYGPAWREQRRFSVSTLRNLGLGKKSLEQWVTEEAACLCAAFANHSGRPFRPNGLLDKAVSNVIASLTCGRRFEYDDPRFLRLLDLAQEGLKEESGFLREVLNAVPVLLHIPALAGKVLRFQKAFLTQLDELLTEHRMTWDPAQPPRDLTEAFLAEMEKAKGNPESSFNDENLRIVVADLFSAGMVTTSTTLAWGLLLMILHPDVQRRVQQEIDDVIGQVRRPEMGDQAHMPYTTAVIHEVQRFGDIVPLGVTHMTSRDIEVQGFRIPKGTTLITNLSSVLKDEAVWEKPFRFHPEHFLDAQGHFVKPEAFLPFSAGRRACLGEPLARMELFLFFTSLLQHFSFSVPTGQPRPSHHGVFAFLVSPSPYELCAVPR

## O=C(O)CC1CCC2(CC1)CCC(c1ccc(NC(=O)c3nnc(Nc4ccc(F)c(F)c4)o3)cn1)CC2 (stereo not drawn) [listing 1 of 2 here]
[1]
  IC50: 16 nM
[2]
  remaining at 0.5 h, 1 µM: 71%
[3]
  remaining at 0.5 h, 1 µM: 88%
[4]
  remaining at 0.5 h, 1 µM: 100%
hERG (KCNH2)
  inhibition at 2 h, 30 µM: 26%
[5]
  fraction unbound: < 0.01
[6]
  fraction unbound: 0.03
[7]
  clearance: 21 mL/min/kg
[8]
  Papp A→B at 1.5 h, 2.5 µM: 4.7 ×10⁻⁶ cm/s
[9]
  Vd: 1.8 L/kg
[10]
  AUC at 24 h: 4.4 µM·h
[11]
  Cmax: 2600 nM
[12]
  Tmax: 0.5 h
[13]
  half-life: 2.1 h
[14]
  bioavailability: 53%
[15]
  Vd: 0.5 L/kg
[16]
  clearance: 1.2 mL/min/kg
[17]
  AUC at 24 h: 23.7 µM·h
[18]
  Cmax: 3800 nM
[19]
  Tmax: 1.3 h
[20]
  half-life: 6.4 h
[21]
  bioavailability: 9%
[22]
  concentration at 1 h: 2760 nM
[23]
  concentration at 2 h: 1860 nM
[24]
  concentration at 8 h: 80 nM
[25]
  concentration at 1 h: 740 nM
[26]
  concentration at 2 h: 470 nM
[27]
  concentration at 8 h: 110 nM
[28]
  concentration at 1 h: 74000 nM
[29]
  concentration at 2 h: 73000 nM
[30]
  concentration at 8 h: 28000 nM
[31]
  concentration at 1 h: 520 nM
[32]
  concentration at 2 h: 290 nM
[33]
  concentration at 8 h: 70 nM
[34]
  concentration at 1 h: 20 nM
[35]
  concentration at 2 h: 60 nM

## O=C(O)CC1CCC2(CC1)CCC(c1ccc(NC(=O)c3nnc(Nc4ccc(F)c(F)c4)o3)cn1)CC2 (stereo not drawn) [listing 2 of 2 here]
[36]
  inhibition: 16%
[37]
  inhibition: 90%
[38]
  inhibition: 55%
[39]
  inhibition: 82%

## O=C(Nc1ccc(N2CCC3(CC2)CC(C(=O)[O-])C3)nc1)c1nnc(Nc2ccc(F)c(F)c2)o1.[Na+]
CYP1A2
  inhibition at 25 µM: 12%
CYP3A4
  inhibition at 25 µM: 10%
[40]
  solubility at 4 h: 179 µM
[41]
  solubility at 4 h: 36 µM
[42]
  solubility at 4 h: 1060 µM
[43]
  solubility at 4 h: 723 µM

## O=C([O-])CC1CCC2(CC1)CCC(c1ccc(NC(=O)c3nnc(Nc4ccc(F)c(F)c4)o3)cc1)CC2.[Na+] (stereo not drawn)
CYP1A2
  inhibition at 25 µM: 5%
CYP3A4
  inhibition at 25 µM: 5%
CYP2D6
  inhibition at 25 µM: 8%
[40]
  solubility at 4 h: 28 µM
[41]
  solubility at 4 h: 263 µM
[42]
  solubility at 4 h: 14 µM
[43]
  solubility at 4 h: 17 µM
